Measured values published in patent publication US20230085307A1, “PYRIDAZINONE COMPOUND AND HERBICIDE” (NISSAN CHEMICAL CORPORATION, priority 2019, published 2023).

Experiments:
[1] = test system: windgrass; test: Test Example 5: herbicidal effect by foliage application, plastic box (Table 20, symbol L); type: in vivo, windgrass (Apera spica-venti); settings: foliage application, AAH 320 g/ha, evaluated three weeks after application
Outline: (§1)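 Sow seeds spot-wise in sterilized diluvial soil; cover with ~1.5 cm soil. Grow 14 days in greenhouse, 25° C. to 30° C. Spray foliage with emulsion diluted to predetermined amount. Rate effect after 3 weeks.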

[2] = test system: lambsquarters; test: Test Example 5: herbicidal effect by foliage application, plastic box (Table 20, symbol O); type: in vivo, lambsquarters (Chenopodium album); settings: foliage application, AAH 320 g/ha, evaluated three weeks after application
Outline: as §1

[3] = test system: windgrass; test: Test Example 4: herbicidal effect by soil treatment (Table 19, symbol L); type: in vivo, windgrass (Apera spica-venti); settings: amount of applied herbicide 320 g/ha
From the text: (§2) [Test Example 4] Herbicidal Effect Test by Soil Treatment
(§3) Sterilized diluvial soil was placed in a plastic box having a length of 21 cm, a width of 13 cm, and a depth of 7 cm. The seeds of each of southern crabgrass, green foxtail, barnyard grass, wild oat, blackgrass, Italian ryegrass, windgrass, velvetleaf, redroot pigweed, lambsquarters, chickweed, false cleavers, persian speedwell, corn, soybean, rice, wheat, beet, and rapeseed were sowed in a spot-like manner and covered with the soil having a thickness of about 1.5 cm. Subsequently, the emulsion agent of the compound of the present invention prepared according to Formulation Example 2 was diluted with water so as to achieve a predetermined herbicide amount, and the diluted emulsion agent was uniformly applied to the surface of the soil with a small-sized spray. The plastic box was placed in a greenhouse at 25° C. to 30° C. for growth of the plants. Three weeks after the herbicide application, the effect of the herbicide on each plant was evaluated according to the criteria of Test Example 1.

[4] = test system: Chinese sprangletop; test: Test Example 3: herbicidal effect by foliage application, Wagner pot (Table 18, symbol D); type: in vivo, chinese sprangletop (Leptochloa chinensis)
Outline: (§4)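 Plants were sown in alluvial soil held under 0.1–0.5 cm standing water and grown 14 days in a greenhouse at 25–30 °C. An emulsifiable formulation, water-diluted to the set dose, was then sprayed onto the foliage, and effects were scored three weeks later using previously defined criteria.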

[5] = test system: velvetleaf; test: Test Example 4: herbicidal effect by soil treatment (Table 19, symbol M); type: in vivo, velvetleaf (Abutilon theophrasti)
Outline: (§5)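 Soil-surface application: an emulsion agent diluted with water to the predetermined dose is sprayed uniformly over seeds lying under roughly 1.5 cm of sterilized diluvial soil. Boxes stay in a greenhouse at 25° C. to 30° C. Three weeks later, each species is graded on previously defined criteria.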

[6] = test system: chickweed; test: Test Example 5: herbicidal effect by foliage application, plastic box (Table 20, symbol P); type: in vivo, common chickweed (Stellaria media); settings: foliage application, AAH 320 g/ha, evaluated three weeks after application
Outline: as §1

[7] = test system: velvetleaf; test: Test Example 5: herbicidal effect by foliage application, plastic box (Table 20, symbol M); type: in vivo, velvetleaf (Abutilon theophrasti); settings: foliage application, AAH 320 g/ha, evaluated three weeks after application
Outline: as §1

[8] = test system: wild oat; test: Test Example 5: herbicidal effect by foliage application, plastic box (Table 20, symbol I); type: in vivo, wild oat (Avena fatua); settings: foliage application, AAH 320 g/ha, evaluated three weeks after application
Outline: as §1

[9] = test system: barnyard grass; test: Test Example 3: herbicidal effect by foliage application, Wagner pot (Table 18, symbol H); type: in vivo, barnyard grass (Echinochloa crus-galli)
Outline: as §4

[10] = test system: wild oat; test: Test Example 4: herbicidal effect by soil treatment (Table 19, symbol I); type: in vivo, wild oat (Avena fatua)
Outline: as §5

[11] = test system: blackgrass; test: Test Example 4: herbicidal effect by soil treatment (Table 19, symbol J); type: in vivo, blackgrass (Alopecurus myosuroides)
From the text: as §2, §3

[12] = test system: green foxtail; test: Test Example 5: herbicidal effect by foliage application, plastic box (Table 20, symbol G); type: in vivo, green foxtail (Setaria viridis); settings: foliage application, AAH 320 g/ha, evaluated three weeks after application
Outline: as §1

[13] = test system: lambsquarters; test: Test Example 4: herbicidal effect by soil treatment (Table 19, symbol O); type: in vivo, lambsquarters (Chenopodium album)
Outline: as §5

[14] = test system: Italian ryegrass; test: Test Example 5: herbicidal effect by foliage application, plastic box (Table 20, symbol K); type: in vivo, Italian ryegrass (Lolium multiflorum); settings: foliage application, AAH 320 g/ha, evaluated three weeks after application
Outline: as §1

[15] = test system: redroot pigweed; test: Test Example 5: herbicidal effect by foliage application, plastic box (Table 20, symbol N); type: in vivo, redroot pigweed (Amaranthus retroflexus); settings: foliage application, AAH 320 g/ha, evaluated three weeks after application
Outline: as §1

[16] = test system: southern crabgrass; test: Test Example 4: herbicidal effect by soil treatment (Table 19, symbol F); type: in vivo, southern crabgrass (Digitaria ciliaris)
Outline: as §5

[17] = test system: Italian ryegrass; test: Test Example 4: herbicidal effect by soil treatment (Table 19, symbol K); type: in vivo, Italian ryegrass (Lolium multiflorum)
From the text: as §2, §3

[18] = test system: barnyard grass; test: Test Example 5: herbicidal effect by foliage application, plastic box (Table 20, symbol H); type: in vivo, barnyard grass (Echinochloa crus-galli); settings: foliage application, AAH 320 g/ha, evaluated three weeks after application
Outline: as §1

[19] = test system: blackgrass; test: Test Example 5: herbicidal effect by foliage application, plastic box (Table 20, symbol J); type: in vivo, blackgrass (Alopecurus myosuroides); settings: foliage application, AAH 320 g/ha, evaluated three weeks after application
Outline: as §1

[20] = test system: southern crabgrass; test: Test Example 5: herbicidal effect by foliage application, plastic box (Table 20, symbol F); type: in vivo, southern crabgrass (Digitaria ciliaris); settings: foliage application, AAH 320 g/ha, evaluated three weeks after application
Outline: as §1

[21] = test system: persian speedwell; test: Test Example 5: herbicidal effect by foliage application, plastic box (Table 20, symbol R); type: in vivo, Persian speedwell (Veronica persica); settings: foliage application, AAH 320 g/ha, evaluated three weeks after application
Outline: as §1

[22] = test system: chickweed; test: Test Example 4: herbicidal effect by soil treatment (Table 19, symbol P); type: in vivo, common chickweed (Stellaria media)
Outline: as §5

[23] = test system: redroot pigweed; test: Test Example 4: herbicidal effect by soil treatment (Table 19, symbol N); type: in vivo, redroot pigweed (Amaranthus retroflexus)
Outline: as §5

[24] = test system: barnyard grass; test: Test Example 4: herbicidal effect by soil treatment (Table 19, symbol H); type: in vivo, barnyard grass (Echinochloa crus-galli)
Outline: as §5

[25] = test system: rice flat sedge; test: Test Example 3: herbicidal effect by foliage application, Wagner pot (Table 18, symbol E); type: in vivo, rice flat sedge (Cyperus iria)
Outline: as §4

[26] = test system: green foxtail; test: Test Example 4: herbicidal effect by soil treatment (Table 19, symbol G); type: in vivo, green foxtail (Setaria viridis)
Outline: as §5

[27] = test system: persian speedwell; test: Test Example 4: herbicidal effect by soil treatment (Table 19, symbol R); type: in vivo, Persian speedwell (Veronica persica); settings: amount of applied herbicide 280 g/ha
From the text: as §2, §3

[28] = amount of applied herbicide 320 g/ha
[29] = amount of applied herbicide 280 g/ha

COCCSc1ccc(-c2sc3ccc(F)cc3c2-c2c(O)c(C)nn(C)c2=O)cc1 [2-265]
L: windgrass, herbicidal effect (criteria 0-5) [1]: 0 (Herbicidal rate of 5% or less (almost no effect))
O: lambsquarters, herbicidal effect (criteria 0-5) [2]: 4 (Herbicidal rate of 70% or more and less than 90%)
herbicidal effect on L: windgrass [3]: 0 (Herbicidal rate of 5% or less (almost no effect))
herbicidal effect on D: Chinese sprangletop [4, 28]: 4 (Herbicidal rate of 70% or more and less than 90%)
herbicidal effect on M: velvetleaf [5, 28]: 3 (Herbicidal rate of 40% or more and less than 70%)
P: chickweed, herbicidal effect (criteria 0-5) [6]: 5 (Herbicidal rate of 90% or more (almost completely withered))
M: velvetleaf, herbicidal effect (criteria 0-5) [7]: 5 (Herbicidal rate of 90% or more (almost completely withered))
I: wild oat, herbicidal effect (criteria 0-5) [8]: 3 (Herbicidal rate of 40% or more and less than 70%)
herbicidal effect on H: barnyard grass [9, 28]: 5 (Herbicidal rate of 90% or more (almost completely withered))
herbicidal effect on I: wild oat [10, 28]: 0 (Herbicidal rate of 5% or less (almost no effect))
herbicidal effect on J: blackgrass [11, 28]: 0 (Herbicidal rate of 5% or less (almost no effect))
G: green foxtail, herbicidal effect (criteria 0-5) [12]: 5 (Herbicidal rate of 90% or more (almost completely withered))
herbicidal effect on O: lambsquarters [13, 28]: 4 (Herbicidal rate of 70% or more and less than 90%)
K: Italian ryegrass, herbicidal effect (criteria 0-5) [14]: 2 (Herbicidal rate of 20% or more and less than 40%)
N: redroot pigweed, herbicidal effect (criteria 0-5) [15]: 5 (Herbicidal rate of 90% or more (almost completely withered))
herbicidal effect on F: southern crabgrass [16, 28]: 3 (Herbicidal rate of 40% or more and less than 70%)
herbicidal effect on K: Italian ryegrass [17, 28]: 0 (Herbicidal rate of 5% or less (almost no effect))
H: barnyard grass, herbicidal effect (criteria 0-5) [18]: 4 (Herbicidal rate of 70% or more and less than 90%)
J: blackgrass, herbicidal effect (criteria 0-5) [19]: 0 (Herbicidal rate of 5% or less (almost no effect))
F: southern crabgrass, herbicidal effect (criteria 0-5) [20]: 4 (Herbicidal rate of 70% or more and less than 90%)
R: persian speedwell, herbicidal effect (criteria 0-5) [21]: 5 (Herbicidal rate of 90% or more (almost completely withered))
herbicidal effect on P: chickweed [22, 28]: 0 (Herbicidal rate of 5% or less (almost no effect))
herbicidal effect on N: redroot pigweed [23, 28]: 5 (Herbicidal rate of 90% or more (almost completely withered))
herbicidal effect on H: barnyard grass [24, 28]: 2 (Herbicidal rate of 20% or more and less than 40%)
herbicidal effect on E: rice flat sedge [25, 28]: 5 (Herbicidal rate of 90% or more (almost completely withered))
herbicidal effect on G: green foxtail [26, 28]: 4 (Herbicidal rate of 70% or more and less than 90%)

COc1cccc(-c2sc3ccc(F)cc3c2-c2c(O)c(C)nn(C)c2=O)n1 [2-382]
herbicidal effect on D: Chinese sprangletop [4, 29]: 0 (Herbicidal rate of 5% or less (almost no effect))
herbicidal effect, M: velvetleaf [5, 29]: 1 (Herbicidal rate of 5% or more and less than 20%)
herbicidal effect on H: barnyard grass [9, 29]: 0 (Herbicidal rate of 5% or less (almost no effect))
herbicidal effect, I: wild oat [10, 29]: 0 (Herbicidal rate of 5% or less (almost no effect))
herbicidal effect, J: blackgrass [11, 29]: 0 (Herbicidal rate of 5% or less (almost no effect))
herbicidal effect, O: lambsquarters [13, 29]: 4 (Herbicidal rate of 70% or more and less than 90%)
herbicidal effect, F: southern crabgrass [16, 29]: 0 (Herbicidal rate of 5% or less (almost no effect))
herbicidal effect, K: Italian ryegrass [17, 29]: 1 (Herbicidal rate of 5% or more and less than 20%)
herbicidal effect, R: persian speedwell [27]: 4 (Herbicidal rate of 70% or more and less than 90%)
herbicidal effect, P: chickweed [22, 29]: 4 (Herbicidal rate of 70% or more and less than 90%)
herbicidal effect, N: redroot pigweed [23, 29]: 4 (Herbicidal rate of 70% or more and less than 90%)
herbicidal effect, H: barnyard grass [24, 29]: 1 (Herbicidal rate of 5% or more and less than 20%)
herbicidal effect on E: rice flat sedge [25, 29]: 3 (Herbicidal rate of 40% or more and less than 70%)
herbicidal effect, G: green foxtail [26, 29]: 0 (Herbicidal rate of 5% or less (almost no effect))
